ChEMBL document CHEMBL4190191, “Cyclic Diarylheptanoids from Corylus avellana Green Leafy Covers: Determination of Their Absolute Configurations and Evaluation of Their Antioxidant and Antimicrobial Activities” (J Nat Prod, 2017)

How the values were obtained:
Type in all cases: functional
Conditions in all cases: read-out: DIZ
[1] = tested on: Pseudomonas aeruginosa; experiment: Antimicrobial activity against Pseudomonas aeruginosa DSM 50071 assessed as growth inhibition at 7 ug per disc after 24 to 48 hrs (reference value: 0 millimeter)
[2] = tested on: Bacillus cereus; experiment: Antimicrobial activity against Bacillus cereus DSM 4384 assessed as growth inhibition at 7 ug per disc after 24 to 48 hrs (reference value: 0 millimeter)
[3] = tested on: Bacillus cereus; experiment: Antimicrobial activity against Bacillus cereus DSM 4313 assessed as growth inhibition at 7 ug per disc after 24 to 48 hrs (reference value: 0 millimeter)
[4] = tested on: Escherichia coli; experiment: Antimicrobial activity against Escherichia coli DSM 8579 assessed as growth inhibition at 7 ug per disc after 24 to 48 hrs (reference value: 0 millimeter)
[5] = tested on: Staphylococcus aureus; experiment: Antimicrobial activity against Staphylococcus aureus DSM 25923 assessed as growth inhibition at 7 ug per disc after 24 to 48 hrs (reference value: 0 millimeter)

`CN(C)[C@@H]1C(O)=C(C(N)=O)C(=O)[C@@]2(O)C(O)=C3C(=O)c4c(O)cccc4[C@@](C)(O)[C@H]3C[C@@H]12` [TETRACYCLINE] gave a zone of inhibition at 7 µg/disc [1] of 9.67 mm, a zone of inhibition at 7 µg/disc [2] of 8.67 mm and a zone of inhibition at 7 µg/disc [3] of 10.3 mm. The zone of inhibition at 7 µg/disc [4] was 12.7 mm and the zone of inhibition at 7 µg/disc [5] was 11.3 mm.
